{"source": "patent US12516039B2", "about": "“N-linked isoquinoline amides as LRRK2 inhibitors, pharmaceutical compositions, and uses thereof” (Merck Sharp & Dohme LLC, priority 2020, dated 2026)"}
{"target": "T1, GST-tagged truncated human mutant G2019S LRRK2 (Homo sapiens, UniProt Q5S007, G2019S)", "T1 construct": "GST-tagged truncated human mutant G2019S LRRK2; purchased Life Technologies Corporation (Carlsbad, CA)", "T1 sequence (Q5S007 970-2527 G2019S limits assumed)": "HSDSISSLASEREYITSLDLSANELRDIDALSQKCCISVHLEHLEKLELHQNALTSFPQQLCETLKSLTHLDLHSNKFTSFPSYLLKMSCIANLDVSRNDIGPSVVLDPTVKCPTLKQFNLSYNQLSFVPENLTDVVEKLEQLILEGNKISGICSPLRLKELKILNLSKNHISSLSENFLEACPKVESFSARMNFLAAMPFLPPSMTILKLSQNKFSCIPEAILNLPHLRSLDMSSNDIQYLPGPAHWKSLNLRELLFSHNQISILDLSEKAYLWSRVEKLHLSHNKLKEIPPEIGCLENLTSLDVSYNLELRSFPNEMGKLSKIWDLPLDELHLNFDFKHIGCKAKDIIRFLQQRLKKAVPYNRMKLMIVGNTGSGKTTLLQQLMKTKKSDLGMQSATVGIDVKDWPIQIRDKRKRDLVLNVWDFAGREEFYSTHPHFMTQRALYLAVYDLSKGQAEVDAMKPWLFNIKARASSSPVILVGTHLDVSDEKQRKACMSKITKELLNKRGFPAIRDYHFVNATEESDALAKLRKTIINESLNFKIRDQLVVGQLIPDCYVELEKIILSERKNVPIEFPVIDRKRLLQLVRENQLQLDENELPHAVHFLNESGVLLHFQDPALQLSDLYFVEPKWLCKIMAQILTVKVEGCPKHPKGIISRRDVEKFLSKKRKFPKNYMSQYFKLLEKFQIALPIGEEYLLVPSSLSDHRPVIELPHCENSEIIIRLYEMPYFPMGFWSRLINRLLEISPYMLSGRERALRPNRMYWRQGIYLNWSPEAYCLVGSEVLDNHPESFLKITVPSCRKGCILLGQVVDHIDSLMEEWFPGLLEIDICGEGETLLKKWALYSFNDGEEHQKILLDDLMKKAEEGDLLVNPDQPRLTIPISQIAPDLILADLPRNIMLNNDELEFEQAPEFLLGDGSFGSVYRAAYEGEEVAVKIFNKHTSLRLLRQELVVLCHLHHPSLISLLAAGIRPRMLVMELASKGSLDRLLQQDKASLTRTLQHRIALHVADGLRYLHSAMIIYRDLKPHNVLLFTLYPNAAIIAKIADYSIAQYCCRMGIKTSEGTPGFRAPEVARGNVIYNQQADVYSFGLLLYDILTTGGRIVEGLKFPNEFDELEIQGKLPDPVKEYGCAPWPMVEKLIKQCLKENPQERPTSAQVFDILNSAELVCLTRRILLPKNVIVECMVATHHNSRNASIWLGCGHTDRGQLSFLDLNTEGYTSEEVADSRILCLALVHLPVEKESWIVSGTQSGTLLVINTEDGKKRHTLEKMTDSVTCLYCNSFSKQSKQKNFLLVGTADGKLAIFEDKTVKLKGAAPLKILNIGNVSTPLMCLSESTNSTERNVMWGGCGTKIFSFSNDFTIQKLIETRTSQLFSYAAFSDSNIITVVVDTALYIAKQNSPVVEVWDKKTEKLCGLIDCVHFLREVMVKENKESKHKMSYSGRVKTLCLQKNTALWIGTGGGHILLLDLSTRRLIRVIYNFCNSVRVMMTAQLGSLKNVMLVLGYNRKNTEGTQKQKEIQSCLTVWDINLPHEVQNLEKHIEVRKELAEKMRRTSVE", "experiment": "LRRK2 G2019S Km ATP LanthaScreen assay", "format": "biochemical", "settings": "134 μM ATP (Km ATP), LRRKtide substrate, mean of several tests", "summary_of_the_method": "(§1)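 GST-tagged truncated human LRRK2 G2019S (1.25 nM enzyme solution) was preincubated 15 min with compound, then reacted 90 min at ambient temperature with fluorescein-LRRKtide (400 nM solution) and 134 μM ATP (Km) in Tris pH 8.5. EDTA stop; Tb anti-phospho-LRRKtide TR-FRET (520/495 ratio). IC50 from 4-parameter fits, mean of several runs.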"}
{"compound": "(3R or 3S)-N-[6-[4-((3R,4R or 3S,4S)-4-fluoro-3-methyl-tetrahydrofuran-3-yl)piperazin-1-yl]-7-methyl-3-isoquinolyl]-5,5-dimethyl-tetrahydrofuran-3-carboxamide [Ex-10.95]", "LRRK2 pIC50": 9.64}
{"compound": "(1R,2R,3R, or 1R,2S,3R, or 1S,2R,3S, or 1S,2S,3S)-N-[7-chloro-6-[4-((3R,4R or 3S,4S)-4-fluoro-3-methyl-tetrahydrofuran-3-yl)piperazin-4-ium-1-yl]-3-isoquinolyl]-2-methyl-3-(2-pyridyl)cyclopropanecarboxamide [Ex-10.72]", "LRRK2 pIC50": 10.09}
{"compound": "O=C(Nc1cc2cc(N3CCc4[nH]ncc4C3)c(Cl)cc2cn1)C1CC1", "note": "[Ex-4.3]", "LRRK2 pIC50": 7.85}
{"target": "T1, GST-tagged truncated human mutant G2019S LRRK2", "experiment": "LRRK2 G2019S Km ATP LanthaScreen assay", "format": "biochemical", "settings": "134 μM ATP (Km ATP), LRRKtide substrate, mean of several tests, read-out: LRRK2 pIC50 (converted)", "summary_of_the_method": "as §1", "units": {"IC50": "nM"}}
{"compound": "Cc1cc2cnc(NC(=O)C3CCOC(C)(C)C3)cc2cc1N1CCN(C2(C)CCOC2)CC1", "note": "(single isomer, unassigned) [Ex-10.43, (4R or 4S)-2,2-dimethyl-N-[7-methyl-6-[4-((R or S)-3-methyltetrahydrofuran-3-yl)piperazin-1-yl]-3-isoquinolyl]tetrahydropyran-4-carboxamide]", "IC50": 19.5}
{"compound": "COC1COCC1(C)N1CCN(c2cc3cc(NC(=O)C4CC45CCOCC5)ncc3cc2Cl)CC1", "note": "(single isomer, unassigned) [Ex-5.6]", "IC50": 316}
{"compound": "CC1(c2ccccn2)CC1C(=O)Nc1cc2cc(N3CCN(C4(C)COCC4O)CC3)c(Cl)cc2cn1", "note": "(single isomer, unassigned) [Ex-11.2, (1R,2R)(3R,4R)— or (1R,2S)(3R,4R)— or (1S,2R)(3R,4R)— or (1S,2S)(3R,4R)— or (1R,2R)(3S,4S)— or (1R,2S)(3S,4S)— or (1S,2R)(3S,4S)— or (1S,2S)(3S,4S)-N-(7-chloro-6-(4-(4-hydroxy-3-methyltetrahydrofuran-3-yl)piperazin-1-yl)isoquinolin-3-yl)-2-methyl-2-(pyridin-2-yl)cyclopropane-1-carboxamide]", "IC50": 45.7}
{"compound": "COCC1CCC1C(=O)Nc1cc2cc(N3CCN(C4(C)COCC4O)CC3)c(Cl)cc2cn1", "note": "(single isomer, unassigned) [Ex-1.26, (1R,2S or 1R,2R, or 1S,2S, or 1S,2R)-N-(7-chloro-6-(4-((3R,4R)-4-hydroxy-3-methyltetrahydrofuran-3-yl)piperazin-1-yl)isoquinolin-3-yl)-2-(methoxymethyl)cyclobutane-1-carboxamide]", "IC50": 1.45}
{"compound": "Cc1cc2cnc(NC(=O)C3CC34CCOCC4)cc2cc1N1CCN(C2(C)COCC2O)CC1", "note": "(single isomer, unassigned) [Ex-6.1]", "IC50": 0.355}
{"compound": "Cn1ccc(C2CC2C(=O)Nc2cc3cc(N4CCN(C5(C)COCC5F)CC4)c(Cl)cc3cn2)n1", "note": "(single isomer, unassigned) [Ex-10.17, (1R,2R or 1S,2S)-N-[7-chloro-6-[4-((3R,4R or 3S,4S)-4-fluoro-3-methyl-tetrahydrofuran-3-yl)piperazin-1-yl]-3-isoquinolyl]-2-(1-methylpyrazol-3-yl)cyclopropanecarboxamide]", "IC50": 2.75}
{"compound": "CC1(C2CCOC2)CC1C(=O)Nc1cc2cc(N3CCN(C4(C)COCC4O)CC3)c(Cl)cc2cn1", "note": "(single isomer, unassigned) [Ex-10.87, (1R,2R or 1S,2S, or 1R,2S, or 1S,2R)-N-[7-chloro-6-[4-((3R,4R or 3S,4S)-4-hydroxy-3-methyl-tetrahydrofuran-3-yl)piperazin-1-yl]-3-isoquinolyl]-2-methyl-2-tetrahydrofuran-3-yl-cyclopropanecarboxamide]", "IC50": 0.0813}
{"compound": "CC1(N2CCN(c3cc4cc(NC(=O)C5CC5C(F)F)ncc4cc3Cl)CC2)COCC1F", "note": "(single isomer, unassigned) [Ex-10.75, (1R,2R or 1S,2S)-N-[7-chloro-6-[4-((3R,4R or 3S,4S)-4-fluoro-3-methyl-tetrahydrofuran-3-yl)piperazin-1-yl]-3-isoquinolyl]-2-(difluoromethyl)cyclopropanecarboxamide]", "IC50": 0.219}
{"compound": "CCC1C(C(=O)Nc2cc3cc(N4CCN(C5(C)COCC5F)CC4)c(Cl)cc3cn2)C1c1ccn(C)n1", "note": "(single isomer, unassigned) [Ex-10.49, (1R,2R,3R, 1R,2S,3R, or 1S,2R,3S, or 1S,2S,3S)-N-[7-chloro-6-[4-((3R,4R or 3S,4S)-4-fluoro-3-methyl-tetrahydrofuran-3-yl)piperazin-1-yl]-3-isoquinolyl]-2-ethyl-3-(1-methylpyrazol-3-yl)cyclopropanecarboxamide]", "IC50": 0.0813}
{"compound": "C[C@H]1CN(c2cc3cc(NC(=O)C4CC45CCOCC5)ncc3cc2Cl)CCN1C1COCC1O", "note": "(single isomer, unassigned) [Ex-2.3, (R or S)-N-{7-chloro-6-[(3S or 3R)-4-(3R,4R or 3S,4S)-4-hydroxyoxolan-3-yl)-3-methylpiperazin-1-yl]isoquinolin-3-yl}-6-oxaspiro[2.5]octane-1-carboxamide]", "IC50": 17.4}
{"compound": "CC1(N2CCN(c3cc4cc(NC(=O)C5CC56CCOCC6)ncc4cc3Cl)CC2)CCOC1", "note": "(single isomer, unassigned) [Ex-5.12]", "IC50": 126}
{"compound": "CC1(N2CCN(c3cc4cc(NC(=O)C5CC56CCOCC6)ncc4cc3Cl)CC2)CCOC1", "note": "(single isomer, unassigned) [Ex-5.14]", "IC50": 302}
{"compound": "CC1(N2CCN(c3cc4cc(NC(=O)C5CCC5C#N)ncc4cc3Cl)CC2)COCC1O", "note": "(single isomer, unassigned) [Ex-10.39, (1R,2R of 1S,2S)-N-[7-chloro-6-[4-((3R,4R or 3S,4S)-4-hydroxy-3-methyl-tetrahydrofuran-3-yl)piperazin-1-yl]-3-isoquinolyl]-2-cyano-cyclobutanecarboxamide]", "IC50": 0.0813}
{"compound": "CC1(C)OCCC1C(=O)Nc1cc2cc(N3CCN(C4(C)COCC4O)CC3)c(Cl)cc2cn1", "note": "(single isomer, unassigned) [Ex-1.23, (R or S)-N-(7-chloro-6-(1-((3R,4R or 3S,4S)-4-hydroxy-3-methyltetrahydrofuran-3-yl)piperazin-4-yl)isoquinolin-3-yl)-2,2-dimethyltetrahydrofuran-3-carboxamide]", "IC50": 7.41}
{"compound": "CC(C)n1nccc1C1CC1C(=O)Nc1cc2cc(N3CCN(C4(C)COCC4O)CC3)c(Cl)cc2cn1", "note": "(single isomer, unassigned) [Ex-10.21, (1R,2R or 1S,2S)-N-[7-chloro-6-[4-((3R,4R or 3S,4S)-4-hydroxy-3-methyl-tetrahydrofuran-3-yl)piperazin-1-yl]-3-isoquinolyl]-2-(2-isopropylpyrazol-3-yl)cyclopropanecarboxamide]", "IC50": 44.7}
{"compound": "CC1C(C(=O)Nc2cc3cc(N4CCN(C5(C)CCOC5)CC4)c(Cl)cc3cn2)C1c1cnn(C)c1", "note": "(single isomer, unassigned) [Ex-9.8]", "IC50": 4.9}
{"compound": "Cn1ncc(C2CC2C(=O)Nc2cc3cc(N4CCN(C5(C)CCOC5)CC4)c(Cl)cc3cn2)c1C(F)(F)F", "note": "(single isomer, unassigned) [Ex-10.26, (1R,2R or 1S,2S)-N-[7-chloro-6-[4-((R or S)-3-methyltetrahydrofuran-3-yl)piperazin-4-ium-1-yl]-3-isoquinolyl]-2-[1-methyl-5-(trifluoromethyl)pyrazol-4-yl]cyclopropanecarboxamide]", "IC50": 525}
{"compound": "Cc1cc2cnc(NC(=O)C3CC34CCOC4)cc2cc1N1CCN(C2(C)COCC2O)CC1", "note": "(single isomer, unassigned) [Ex-6.4, (1R, 3S or 1S,3R, or 1R,3S, or 1S,3S)-N-(6-(4-((3R, 4R or 3S,4S)-4-hydroxy-3-methyltetrahydrofuran-3-yl)piperazin-1-yl)-7-methylisoquinolin-3-yl)-5-oxaspiro[2.4]heptane-1-carboxamide]", "IC50": 1.07}
{"compound": "CC1(N2CCN(c3cc4cc(NC(=O)C5CC5c5ccco5)ncc4cc3Cl)CC2)COCC1O", "note": "(single isomer, unassigned) [Ex-10.30, (1R,2R or 1S,2S)-N-[7-chloro-6-[4-((3R,4R or 3S,4S)-4-hydroxy-3-methyl-tetrahydrofuran-3-yl)piperazin-1-yl]-3-isoquinolyl]-2-(2-furyl)cyclopropanecarboxamide]", "IC50": 0.0813}
{"compound": "CC1(N2CCN(c3cc4cc(NC(=O)C5CC56CCOCC6)ncc4cc3Cl)CC2)CCOC1", "note": "(single isomer, unassigned) [Ex-5.11]", "IC50": 2.45}
{"compound": "COC1COCC1N1CCN(c2cc3cc(NC(=O)C4CC45CCOCC5)ncc3cc2Cl)CC1", "note": "(single isomer, unassigned) [Ex-5.10]", "IC50": 38}
{"compound": "CC1(N2CCN(c3cc4cc(NC(=O)C5CC56CCOC6)ncc4cc3Cl)CC2)COCC1O", "note": "(single isomer, unassigned) [Ex-2.9, (1R,3R or 1S,3S)-N-(7-chloro-6-(4-((3R,4R or 3S,4S)-4-hydroxy-3-methyltetrahydrofuran-3-yl)piperazin-1-yl)isoquinolin-3-yl)-5-oxaspiro[2.4]heptane-1-carboxamide]", "IC50": 0.195}
{"compound": "Cc1cc2cnc(NC(=O)C3CC34CCOC4)cc2cc1N1CCN(C2(C)COCC2O)CC1", "note": "(single isomer, unassigned) [Ex-6.7, (1R, 3S or 1S,3R, or 1R,3S, or 1S,3S)-N-(6-(4-((3R, 4R or 3S,4S)-4-hydroxy-3-methyltetrahydrofuran-3-yl)piperazin-1-yl)-7-methylisoquinolin-3-yl)-5-oxaspiro[2.4]heptane-1-carboxamide]", "IC50": 126}
{"compound": "CC(C)(O)C1CC1C(=O)Nc1cc2cc(N3CCN(C4(C)COCC4O)CC3)c(Cl)cc2cn1", "note": "(single isomer, unassigned) [Ex-10.5]", "IC50": 4.79}
{"compound": "CCC1C(C(=O)Nc2cc3cc(N4CCN(C5(C)COCC5F)CC4)c(Cl)cc3cn2)C1c1ccn(C)n1", "note": "(single isomer, unassigned) [Ex-10.52, (1R,2R,3R, 1R,2S,3R, or 1S,2R,3S, or 1S,2S,3S)-N-[7-chloro-6-[4-((3R,4R or 3S,4S)-4-fluoro-3-methyl-tetrahydrofuran-3-yl)piperazin-1-yl]-3-isoquinolyl]-2-ethyl-3-(1-methylpyrazol-3-yl)cyclopropanecarboxamide]", "IC50": 0.603}
